This is an account of results in patent publication US6946588B2, “Nucleic acid encoding a modified threonine deaminase and methods of use” (Monsanto Technology LLC, priority 1996, dated 2005).

One data set has as its target BktB β-ketothiolase (Cupriavidus necator, UniProt Q0KBP1). The data set is described as follows: Thiolysis kinetics of purified BktB β-ketothiolase. The conditions noted are these: 25° C. As to the method:
To enhance further our understanding of the kinetic characteristics of BktB β-ketothiolase, a thorough kinetic analysis of the enzyme's thiolysis activity was conducted using purified protein. The assay to determine the kinetic parameters Km and Vmax for βketobutyryl-CoA (C4), β-ketovaleryl-CoA (C5), and β-ketocaproyl-CoA (C6), was performed at 25° C. by the in situ generation of the β-keto compounds from their corresponding trans-2,3-enoyl-CoAs essentially as described by Haywood et al. (1988). Utilization of variable substrate concentrations permitted the determination of the descriptive kinetic parameters of the β-ketothiolase. Kinetic rates were determined only at fixed substrate concentrations in the Haywood et al. communication.
Purified BktB protein was prepared by growing E. coli […] transformed with pMON25754 in LB broth containing ampicillin (100μg/ml) overnight at 37° C. Cells were then harvested by centrifugation, and the pellet was resuspended in 50 mM KPi and 5% glycerol, sonicated, and the sonicate centrifuged to remove cellular debris. The cell extract was desalted using a PD-10 column (Pharmacia), and proteins resolved using a Pharmacia FPLC system and MonoQ anion-exchange column (Pharmacia). Buffer A was 10 mM Tris buffer, pH 7.8, plus 1 mM DTT; buffer B was buffer A plus 1 M KCl. The gradient was 0 to 10% B in 10 min, then to 35% B in 40 min. The flow rate was 1 ml/min, and the resolved proteins were collected at the rate of 1 ml/fraction. […] The enzyme was stored in 10 mM Tris-HCl, pH 7.8, 1 mM DTT, 50% glycerol at −20° C.
The C5 and C6 enoyl-CoAs were synthesized according to Schulz (1974) and purified using semi-prep C8-reverse-phase HPLC as described above for β-ketovaleryl-CoA. βketobutyryl-CoA (acetoacetyl-CoA) was purchased from Sigma (St. Louis, Mo.). The assay mixture (1 ml final volume) contained 150 mM EPPS, pH 8.0, 50 mM MgCl2, 1.5 mM pyruvate, 0.4 mM NAD+, and a coupling enzyme cocktail of three units crotonase, five units β-hydroxyacyl-CoA dehydrogenase, and 10 units lactic dehydrogenase. The enoyl-CoA was added to this mixture and the absorbance at 304 nm was monitored until it reached a plateau (typically about 5 min). CoA was added to this mixture, followed by BktB β-ketothiolase to initiate the reaction. The decrease in absorbance at 304 nm due to the thiolysis of the β-ketoacyl-CoA was utilized as a direct measure of activity. Extinction coefficients to convert absorbance units to μmol of product were 19.5, 12.2, and 14.0 cm^−1 mM^−1 for β-ketobutyryl-CoA, β-ketovaleryl-CoA, and β-ketocaproyl-CoA, respectively. β-ketoacyl-CoA concentration was varied from […] (CoA was fixed at 200 μM), and CoA concentration was varied from 20 to 400 μM (β-ketocaproyl-CoA was fixed at 60 μM) for determining kinetic parameters for β-ketoacyl-CoA and CoA, respectively. Reaction rates were calculated in the steady-state within the first minute following initiation. All data were fitted to the normal Michaelis-Menten equation using a non-linear regression analysis.

Data set [1] concerns A. eutrophus PhbA and BktB β-ketothiolases. The data set is described as follows: β-Ketothiolase condensation assay with 1-14C-acetyl-CoA (PhbA, BktB). The class given is biochemical. The conditions noted are these: 0.30 mM acetyl-CoA. From the text:
As noted above, A. eutrophus can produce P(3HB-co-3HV) copolymer when provided with an appropriate C5 precursor. […] One of these β-ketothiolases, designated BktB herein, was encoded on plasmid pBK6. A. eutrophus BktB was obtained from E. coli DH5α transformed with plasmid pMON25754. pMON25754 was produced from the A. eutrophus pBK6 clone (Slater et al., 1988) by deleting a 5.0 kb XhoI fragment (there is an additional XhoI site approximately 5.0 kb 5′ to the XhoI site shown in FIG. 1 of Slater et al.). The pBK6 clone was produced by Slater et al. (1988) from A. eutrophus H16, i.e., ATCC accession number 17699, which is publicly available from the American Type Culture Collection, 12301 Parklawn Drive, Rockville, Md. 20852. BktB was overexpressed from its native promoter on the high copy plasmid pMON25754 by growing the cells overnight at 37° C. to stationary phase in LB broth containing ampicillin (100 μg/ml). A. eutrophus PhbA was obtained from E. coli DH5α transformed with pMON25636 (FIG. 20) by growing the cells at 37° C. in LB broth containing ampicillin (100 μg/ml) to early log phase and then inducing with IPTG. Cells were harvested after two hours of further growth.
The activity of β-ketothiolases can be assayed in both the condensation and thiolysis directions. However, condensation activity for products that are the result of a mixed condensation of acetyl-CoA and a longer chain acyl-CoA are difficult to measure. This is due to the difficulty in distinguishing between acetoacetyl-CoA, the product of condensing two acetyl-CoA molecules, and the mixed condensation reaction product, both of which form simultaneously. To date, condensation assays have been spectrophotometrically-based, but these are valid only when there is a single acyl-CoA substrate present (i.e., acetyl-CoA) since they cannot discriminate between the products formed. The assay described below represents the first reported assay that permits complete quantitation of all condensation products regardless of the nature of starting substrates.
β-ketothiolase assays designed to measure the condensation activity with acetyl-CoA plus either propionyl-CoA or butyryl-CoA were performed using 1-^14C-labelled acetyl-CoA. Since the equilibrium for the reaction lies heavily toward the starting acyl-CoAs rather than the condensed β-ketoacyl-CoA product, the latter was “pulled” to the corresponding β-hydroxyacyl-CoA using NADH and β-ketoacyl-CoA dehydrogenase. In addition, to avoid the strong feedback inhibition of β-ketothiolase by free CoA, each assay solution contained 5,5′-dithio-bis(2-nitrobenzoic acid) (DTNB) to trap chemically the free CoA produced by the reaction.
The condensation assay mixture (0.5 ml final volume) contained 100 mM KPi, pH 7.8, 0.5 mM NADH, 0.30 mM 1-^14C-acetyl-CoA (0.15 μCi), 5 units β-ketoacyl-CoA dehydrogenase, 0.5 mM DTNB, and variable propionyl- or butyryl-CoA as indicated in Table 5. The reaction was initiated by the addition of β-ketothiolase. Following 20 minutes at 30° C., each reaction mixture was quenched by the addition of 25 μl of 10% formic acid. Thirty μl of 25% H2SO4 were added to 200 μl of quenched reaction mix; this mixture was then incubated at 70° C. for 24 hours to hydrolyze all CoA thioesters to their free acids. Sixty μl of 5 M sodium formate were added to the sample to neutralize the pH, followed by analysis of a 130 μl aliquot using C18-reverse-phase HPLC (0.5×25 cm column). Detection and quantitation were carried out by monitoring flow-through with a Radiomatic flow detector. A gradient elution was employed using aqueous 1% acetic acid (solvent A) and acetonitrile (solvent B). […]

Sequence of BktB β-ketothiolase (Q0KBP1 2-394 limits assumed): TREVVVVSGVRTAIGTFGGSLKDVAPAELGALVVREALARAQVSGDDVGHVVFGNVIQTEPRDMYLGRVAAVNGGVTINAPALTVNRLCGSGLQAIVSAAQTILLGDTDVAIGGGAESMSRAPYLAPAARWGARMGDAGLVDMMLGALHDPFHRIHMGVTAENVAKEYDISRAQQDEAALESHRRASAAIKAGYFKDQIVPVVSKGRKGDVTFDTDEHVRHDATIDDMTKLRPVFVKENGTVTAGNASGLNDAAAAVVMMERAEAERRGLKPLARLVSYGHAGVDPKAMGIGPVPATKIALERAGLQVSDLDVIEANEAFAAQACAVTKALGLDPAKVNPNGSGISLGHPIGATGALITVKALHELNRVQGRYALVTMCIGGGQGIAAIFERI

Take `CCC(=O)CC(=O)SCCNC(=O)CCNC(=O)[C@H](O)C(C)(C)COP(=O)(O)OP(=O)(O)OC[C@H]1O[C@@H](n2cnc3c(N)ncnc32)[C@H](O)[C@@H]1OP(=O)(O)O` [B-ketovaleryl-CoA]: at BktB β-ketothiolase (CoA fixed at 200 μM), the Km (in general, the concentration of substrate that gives half-maximal velocity) was 15 ± 1 µM and the Vmax is given as 236 ± 8 u/mg.

As to `CC(=O)CC(=O)SCCNC(=O)CCNC(=O)[C@H](O)C(C)(C)COP(=O)(O)OP(=O)(O)OC[C@H]1O[C@@H](n2cnc3c(N)ncnc32)[C@H](O)[C@@H]1OP(=O)(O)O` [B-ketobutyryl-CoA], at BktB β-ketothiolase (CoA fixed at 200 μM), the Km is 37 ± 3 µM and the Vmax came out at 122 ± 5 u/mg.

With `CCCC(=O)CC(=O)SCCNC(=O)CCNC(=O)[C@H](O)C(C)(C)COP(=O)(O)OP(=O)(O)OC[C@H]1O[C@@H](n2cnc3c(N)ncnc32)[C@H](O)[C@@H]1OP(=O)(O)O` [B-ketocaproyl-CoA], at BktB β-ketothiolase (CoA fixed at 200 μM), the Michaelis-Menten constant (Km) came to 6 ± 0.7 µM and the Vmax is recorded as 103 ± 3 u/mg.

Regarding `CC(C)(COP(=O)(O)OP(=O)(O)OC[C@H]1O[C@@H](n2cnc3c(N)ncnc32)[C@H](O)[C@@H]1OP(=O)(O)O)[C@@H](O)C(=O)NCCC(=O)NCCS` [CoA, coenzyme A], the Vmax on BktB β-ketothiolase (β-ketocaproyl-CoA fixed at 60 μM) was determined as 98 ± 3 u/mg.

B1: PhbA: A. eutrophus PhbA β-ketothiolase obtained from E. coli DH5α transformed with pMON25636 (protein, UniProt P14611 1-393, looked up)
Acetyl-CoA acetyltransferase: MTDVVIVSAARTAVGKFGGSLAKIPAPELGAVVIKAALERAGVKPEQVSEVIMGQVLTAGSGQNPARQAAIKAGLPAMVPAMTINKVCGSGLKAVMLAANAIMAGDAEIVVAGGQENMSAAPHVLPGSRDGFRMGDAKLVDTMIVDGLWDVYNQYHMGITAENVAKEYGITREAQDEFAVGSQNKAEAAQKAGKFDEEIVPVLIPQRKGDPVAFKTDEFVRQGATLDSMSGLKPAFDKAGTVTAANASGLNDGAAAVVVMSAAKAKELGLTPLATIKSYANAGVDPKVMGMGPVPASKRALSRAEWTPQDLDLMEINEAFAAQALAVHQQMGWDTSKVNVNGGAIAIGHPIGASGCRILVTLLHEMKRRDAKKGLASLCIGGGMGVALAVERK
modifications: expressed in E. coli
notes: A. eutrophus PhbA β-ketothiolase obtained from E. coli DH5α transformed with pMON25636
Take B1: the “% Turnover C4 Product” value is given as 16.9% in data set [1] (propionyl-CoA 0 mM), 13.5% in data set [1] (propionyl-CoA 0.6 mM), 10.3% in data set [1] (propionyl-CoA 1.2 mM) and 7.0% in data set [1] (propionyl-CoA 2.4 mM). In addition, the “% Turnover C5 Product” value in data set [1] (propionyl-CoA 0.6 mM), in data set [1] (propionyl-CoA 1.2 mM) and in data set [1] (propionyl-CoA 2.4 mM) was 0% in each case.
